Results on 4 molecules are retold here after article PMC9002841, “Characterization of Promising Cytotoxic Metabolites from Tabebuia guayacan Hemsl.: Computational Prediction and In Vitro Testing” (Plants, 2022).

As a reminder, the IC50 is the concentration that gives 50% inhibition.

The target in one assay is T1, CDK2/CyclinA2 (Homo sapiens, UniProt P24941).
T1 construct: purchased #79599
Kind of assay: In vitro CDK-2 inhibitory activity (Kinase-Glo MAX kinase assay). It counts as biochemical. Particulars: mean ± SD. From the text: (§1) The Assay Kits are designed to measure CDK2/CyclinA2 and VEGFR-2 (KDR) activities for screening and profiling applications, using Kinase-Glo® MAX as a detection reagent. The CDK-2 Assay Kit comes in a convenient 96-well format, with enough purified recombinant CDK2/CyclinA2 enzyme, CDK substrate peptide, ATP, and kinase assay buffer for 100 enzyme reactions, while the VEGFR-2 Assay Kit comes in a convenient 96-well format, with enough purified recombinant VEGFR-2 (KDR) enzyme, PTK substrate, ATP, and kinase assay buffer for 100 enzyme reactions. […] The CDK2/CyclinA2 and VEGFR-2 (KDR) activities at a single dose concentration of 10µM were performed, where the Kinase-Glo MAX luminescence kinase assay kit (Promega#V6071) was used. The compounds were diluted in 10% DMSO and 5 µL of the dilution was added to a 50 µL reaction so that the final concentration of DMSO was 1% in all of the reactions. All of the enzymatic reactions were conducted at 30 °C for 45 min. […] After the enzymatic reactions, 50 µL of Kinase-Glo® MAX Luminescence kinase assay solution was added to each reaction and the plates were incubated for 15 min at room temperature. Luminescence signal was measured using a Bio Tek Synergy 2 microplate reader.
(§2) Data were analyzed using one-way analysis of variance (ANOVA) for multiple comparison between all compounds followed by Tukey–Kramer post-ANOVA test. […]
On the technique in general: Kinase-Glo reads ATP consumption through a luciferase reaction.

The next assay has as its target T2, VEGFR-2 (KDR) (Homo sapiens, UniProt P35968).
T2 construct: purchased #40325
The assay can be described thus: In vitro VEGFR-2 inhibitory activity (Kinase-Glo MAX kinase assay). It counts as biochemical. As to conditions: mean ± SD.
Source text: as §1, §2

The next assay concerns the target T3, CDK6/Cyclin D3 (Homo sapiens, UniProt Q00534).
T3 construct: purchased Promega V4489
The assay can be described thus: In vitro CDK-6 inhibitory activity (ADP-Glo kinase assay). It counts as biochemical. Particulars: mean ± SD. The protocol:
Data were analyzed using one-way analysis of variance (ANOVA) for multiple comparison between all compounds followed by Tukey–Kramer post-ANOVA test. The differences were considered statistically significant at p < 0.05.
A general note: ADP-Glo first removes unused ATP, then detects ADP through luciferase.

A further assay deals with topoisomerase-1. As to conditions: cited from earlier work.

T3 sequence (Q00534 whole entry): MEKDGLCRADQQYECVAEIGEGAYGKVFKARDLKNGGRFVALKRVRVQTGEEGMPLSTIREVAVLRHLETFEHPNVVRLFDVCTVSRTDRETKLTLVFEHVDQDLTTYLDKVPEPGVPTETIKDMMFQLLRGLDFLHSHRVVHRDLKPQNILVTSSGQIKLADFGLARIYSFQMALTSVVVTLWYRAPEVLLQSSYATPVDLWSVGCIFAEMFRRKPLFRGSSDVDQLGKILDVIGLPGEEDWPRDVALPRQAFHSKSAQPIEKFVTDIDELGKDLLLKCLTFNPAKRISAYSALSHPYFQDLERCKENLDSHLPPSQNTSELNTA
T3 sequence (P30281 whole entry partner): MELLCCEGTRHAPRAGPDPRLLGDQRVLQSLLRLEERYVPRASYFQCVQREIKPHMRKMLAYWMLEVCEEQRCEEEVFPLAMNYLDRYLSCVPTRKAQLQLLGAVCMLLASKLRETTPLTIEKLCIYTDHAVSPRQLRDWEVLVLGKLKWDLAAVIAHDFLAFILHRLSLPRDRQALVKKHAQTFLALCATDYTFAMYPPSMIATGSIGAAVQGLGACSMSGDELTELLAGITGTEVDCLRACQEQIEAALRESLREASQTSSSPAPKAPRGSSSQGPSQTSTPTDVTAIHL
T2 sequence (P35968 20-1356): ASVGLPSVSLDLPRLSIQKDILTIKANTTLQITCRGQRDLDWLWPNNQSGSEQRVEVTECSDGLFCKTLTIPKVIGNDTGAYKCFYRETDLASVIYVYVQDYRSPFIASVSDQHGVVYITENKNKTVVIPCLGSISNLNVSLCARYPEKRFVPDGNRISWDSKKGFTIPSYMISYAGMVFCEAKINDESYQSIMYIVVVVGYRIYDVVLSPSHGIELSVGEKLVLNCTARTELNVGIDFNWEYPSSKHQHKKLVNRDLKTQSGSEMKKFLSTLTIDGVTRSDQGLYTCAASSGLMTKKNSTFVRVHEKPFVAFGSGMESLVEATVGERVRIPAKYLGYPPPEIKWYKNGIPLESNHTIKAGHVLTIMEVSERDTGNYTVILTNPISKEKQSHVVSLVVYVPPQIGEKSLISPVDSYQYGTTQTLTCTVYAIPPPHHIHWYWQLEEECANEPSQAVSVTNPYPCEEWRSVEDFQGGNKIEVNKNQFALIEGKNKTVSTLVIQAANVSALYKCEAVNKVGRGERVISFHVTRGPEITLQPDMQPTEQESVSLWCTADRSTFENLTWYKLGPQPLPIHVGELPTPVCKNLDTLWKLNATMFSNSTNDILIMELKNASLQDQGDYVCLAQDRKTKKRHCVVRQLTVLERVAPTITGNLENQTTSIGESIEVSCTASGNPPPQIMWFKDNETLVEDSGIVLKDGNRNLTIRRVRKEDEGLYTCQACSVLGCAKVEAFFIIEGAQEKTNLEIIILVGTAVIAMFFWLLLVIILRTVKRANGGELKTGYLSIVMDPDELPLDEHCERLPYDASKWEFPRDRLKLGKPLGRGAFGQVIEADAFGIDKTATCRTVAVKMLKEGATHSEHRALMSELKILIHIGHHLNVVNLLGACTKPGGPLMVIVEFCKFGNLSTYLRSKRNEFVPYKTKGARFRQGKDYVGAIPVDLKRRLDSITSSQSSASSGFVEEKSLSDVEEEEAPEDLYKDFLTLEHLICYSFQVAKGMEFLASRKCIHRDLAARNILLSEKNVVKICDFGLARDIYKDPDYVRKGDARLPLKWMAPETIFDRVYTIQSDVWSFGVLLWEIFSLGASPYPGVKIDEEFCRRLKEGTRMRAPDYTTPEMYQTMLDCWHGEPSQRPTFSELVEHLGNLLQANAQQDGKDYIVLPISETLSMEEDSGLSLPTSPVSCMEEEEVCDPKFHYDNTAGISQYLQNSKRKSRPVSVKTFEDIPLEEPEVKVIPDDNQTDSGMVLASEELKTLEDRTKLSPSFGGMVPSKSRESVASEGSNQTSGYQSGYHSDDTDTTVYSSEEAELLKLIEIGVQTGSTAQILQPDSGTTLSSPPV

Turning to `CC[C@H](CC[C@@H](C)[C@H]1CC[C@H]2[C@@H]3CC=C4C[C@@H](O)CC[C@]4(C)[C@H]3CC[C@]12C)C(C)C` [Compound 1, β-sitosterol], the IC50 on CDK2/CyclinA2 was 581 nM.
Take `C[C@H]1[C@H](C)CC[C@]2(C(=O)O)CC[C@]3(C)C(=CC[C@@H]4[C@@]5(C)C[C@@H](O)[C@H](O)C(C)(C)[C@@H]5CC[C@]43C)[C@H]12` [Compound 3, corosolic acid]: at CDK2/CyclinA2, the IC50 is 239 nM.
On to `O=c1c(OC2OCC(O)C(O)C2O)c(-c2ccc(O)c(O)c2)oc2cc(O)cc(O)c12` (stereo not drawn) [Compound 10, quercetin 3-O-β-xyloside], for which the concentration for half-maximal inhibition (IC50) was 193 nM on VEGFR-2 (KDR) and 355 nM against CDK6/Cyclin D3.
As for `O=c1cc(-c2ccc(O)c(O)c2)oc2cc(OC3O[C@@H](CO)[C@H](O)[C@@H](O)[C@@H]3O)cc(O)c12` (stereo partly drawn) [Compound 16, luteolin-7-O-β-glucoside], the “inhibitory activity against topoisomerase-1” value with topoisomerase-1 is “especially poisonous”.
